Where no end group is shown, it is not given here. [ ]: non-standard residue; d: D form. Ava = NCCCCC(=O)O
Tested on: FR74-specific T cells
Assay: IFN-γ ELIspot of T cell cultures generated ex vivo with polypeptide-pulsed DC
Format: cell-based, FVB/N mice
Procedure: FIG. 4 is a graph plotting the results an IFN-γ ELIspot analyses of T cell cultures incubated with the indicated polypeptides. Epitope nesting greatly augments the numbers of antigen-specific T cells. T cells were tested in ELIspot against native FR74 polypeptide at various concentrations. Each data point is the mean of 3 determinations.
FIG. 6. FR74-specific T cells generated with modified polypeptides recognized tumor lysates. […] Each bar is the mean (±s.e.m.) of 3 replicates.
FIG. 7. […] The T cells were generated at varying concentrations of polypeptides (x-axis). Each point is the mean (±s.e.m.) of 3 replicates.
In terms of proliferation, only the dual modified polypeptide was able to generate T cells that were able to proliferate at 10^−9 g/mL (FIG. 5).
In order to determine whether furin cleavage is required, two methods are used: furin insensitive linkers and furin inhibitors. Blockade of enhanced ex vivo expansion mediated by the DC3 peptide using these two methods is powerful evidence, outside of a furin knockout mouse, that furin is required for the actions of DC3. Although it has already been shown that DC3 must be linked to antigen, as a control T cells are expanded using free FR74 mixed with free DC3. To test the role of furin with furin-insensitive linkers, RARR (SEQ ID NO:4) is replaced with VRVV (SEQ ID NO:41) with the polypeptides FR74.1, FR74.3, and FR74.8 as shown in FIG. 17. In parallel with these cultures, cultures are included in which inhibitors are included. The stoichiometric peptidyl inhibitor decanoyl-Arg-Val-Lys-Arg-CH2CL (SEQ ID NO:42) and α1-antitrypsin Portland, which are the two most commonly used inhibitors, are employed. […] Cultures are examined over a range of concentrations of inhibitors and assayed as described with ELIspot and proliferation assays. To generate Th cells, CD4^+ T cells are purified by incubation of splenocytes with anti-CD4^+ MACS microbeads (Miltenyi, Auburn, Calif.) for 20 minutes at 4° C., followed by positive selection of CD4^+ T cells using an AutoMACS automatic magnetic cell sorter according to the manufacturer's specifications. Th cell lines are established with bone marrow derived DC at a concentration of 5×10^4 T cells/mL in 24-well tissue culture-treated plates in complete medium on day 0. To derive the dendritic cells (DCs), bone marrow is harvested from the long bones of FVB/N mice and seeded in 6-well plates (3×10^6/well) in complete media with murine GM-CSF (10 ng/mL) and IL-4 (1 ng/mL). Media and cytokines are replaced after 3 days. On day 5, CPG is added to the cultures at 1 μg/mL, and the cells are ready for T cell induction on day 6. The tissue culture-generated DC are pulsed with 10 μg/mL FR74 peptide or its modifications and 10 μg/mL B7DC-crosslinking antibody at 37° C. for 4 hours. In these experiments, constant mass is maintained. Next, the peptide-loaded DC are washed with media, and the CD4+ T cells are added, and on days 8 and 10, IL-2 (50 U/mL) is added. On day 15, cells are assayed. For the ELIspot analysis, anti-IFN-γ (Pharmingen) antibody is added to a 96-well nitrocellulose-backed plate (NC-plate, Millipore) at 50 μL/well at a concentration of 10 μg/mL in PBS and incubated overnight at 4° C. The day of analysis, the NC-plate is washed with PBS and blocked for 1-2 hours at 37° C. with PBS/2%BSA. After blocking, the plate are again washed. The Th cells are transferred to the antibody-coated plates. Syngeneic naïve CD4 T cells alone without peptide antigen are used as the negative control. Th cells are seeded at 5×10^4 cells/well with a range of native (i.e., FR74) peptide, irrelevant peptide, FRαMMC tumor lysate, irrelevant tumor lysate, media or concanavalin A. Irradiated syngeneic splenocytes are added at 1 ×10^5 cells/well as antigen-presenting cells. The plate is incubated at 37° C. for 24 hours. The plate are washed with PBS/0.05% Tween-20, and 100 μL/well biotinylated anti-IFN-γ(5 μg/mL, Pharmingen) antibody are added to each well. […]

FR74.4: dual conjugated polypeptide: FR74 nested between Ii-key and DC3 (Ac-LRMK[Ava]KDISYLYRFNWNHCGRARRFYPSYHSTPQRP)
response of generated T cells to naturally processed antigen (DC pulsed with FRα-expressing tumor cells, FIG. 6): retain the capability to respond to naturally processed antigen | lowest peptide concentration at which generated T cells respond (IFN-γ ELIspot against native FR74, FIG. 4): 10^−9 g/mL | ex vivo generation of FR74-specific T cells under equal molar amounts (equal molarity, FIG. 7): superior ex vivo generation of FR74-specific T cells relative to the native polypeptide | generation of FR74-specific T cells (within 12 days of culture, compared to controls, equal masses, FIG. 4): T cell reactivity greater than either modification alone

— patent publication US8858952B2, “Methods and materials for generating T cells” (Mayo Foundation for Medical Education and Research, priority 2009, dated 2014)
